Measurements as given in publication PMC7402526, “An in vitro quantitative systems pharmacology approach for deconvolving mechanisms of drug-induced, multilineage cytopenias” (PLoS Computational Biology, 2020).

Key:
[1] = system: total viable cells (totalViableCells); experiment: MLTA, total live cells concentration-response; assay type: cell-based; details: Homo sapiens, 144 h, 6 days, normalized to vehicle control, read-out: total_live normalized cell count
Procedure, shortened: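 Freeze-thawed primary human bone marrow CD34+ cells in SFEM II with cytokine cocktail, drug added day 0, 6 days at 37°C, 5% CO2. Live/dead counts by 17-parameter flow cytometry with DAPI exclusion, bead-normalized, volume-corrected to cells/mL. Normalized per donor to mean of six vehicle wells; 2–7 donors pooled.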

[2] = system: multi-potent progenitors (MPPs); experiment: MLTA, MPPs: concentration-response and QSP model fit; assay type: cell-based, human; details: Homo sapiens, 144 h
Procedure, shortened: (§1)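 Parameters come from fitting an Emax-based QSP model, with L1 regularization and Emax ranging 0–2, to vehicle-normalized, bead-corrected flow cytometry counts. Counts came from human bone marrow CD34+ cells treated from day 0 through a 6-day multi-lineage cytokine culture in SFEM II, using 2–7 donors per drug.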

[3] = system: granulocyte progenitor (Gran-lin prog); experiment: MLTA, GranP: concentration-response and QSP model fit; assay type: cell-based, human; details: Homo sapiens, 144 h
Procedure, shortened: as §1

[4] = system: late erythroid cells (Eryth II); experiment: MLTA, ErythII: concentration-response and QSP model fit; assay type: cell-based, human; details: Homo sapiens, 144 h
Procedure, shortened: as §1

[5] = system: neutrophils (neutrophil-lin); experiment: MLTA, Neut: concentration-response and QSP model fit; assay type: cell-based, human; details: Homo sapiens, Neutrophil, 144 h
Procedure, shortened: as §1

[6] = system: early erythroid cells (Eryth I); experiment: MLTA, ErythI: concentration-response and QSP model fit; assay type: cell-based, human; details: Homo sapiens, 144 h
Procedure, shortened: as §1

[7] = system: hematopoietic stem cells (HSCs); experiment: Multi-lineage toxicity assay (MLTA), HSCs: concentration-response and QSP model fit; assay type: cell-based, human; design: EmaxAP,HSC / EmaxT,HSC / Emax_drug_HSC: unitless, 0–2; ≤1 anti-proliferative, >1 adds cell killing
Procedure, shortened: as §1

`CC(=O)c1c(C)c2cnc(Nc3ccc(N4CCNCC4)cn3)nc2n(C2CCCC2)c1=O` [palbociclib] was tested, and the viability at 0.0002 µM ([1]; dose 0.2 nM) was 94.8%, the viability at 0.001 µM ([1]; dose 1 nM) was 99.6% and the viability at 0.005 µM ([1]; dose 5 nM) was 91.8%. It also gave a viability at 0.025 µM ([1]; dose 25 nM) of 69.8%, a viability at 0.1 µM ([1]; dose 100 nM) of 39.6% and a viability at 0.5 µM ([1]; dose 500 nM) of 15.4%. For the same compound, the viability at 2.5 µM ([1]; dose 2500 nM) was 6.06%, the activity at 0.0002 µM ([2]; dose 0.2 nM, 6 days, normalized to vehicle control, read-out: MPPs normalized cell count) was 86.4% and the activity at 0.001 µM ([2]; dose 1 nM, 6 days, normalized to vehicle control, read-out: MPPs normalized cell count) was 88.4%. For the same compound, the activity at 0.005 µM ([2]; dose 5 nM, 6 days, normalized to vehicle control, read-out: MPPs normalized cell count) was 77.3%, the activity at 0.025 µM ([2]; dose 25 nM, 6 days, normalized to vehicle control, read-out: MPPs normalized cell count) was 45.6% and the activity at 0.1 µM ([2]; dose 100 nM, 6 days, normalized to vehicle control, read-out: MPPs normalized cell count) was 23.3%. It also gave an activity at 0.5 µM ([2]; dose 500 nM, 6 days, normalized to vehicle control, read-out: MPPs normalized cell count) of 11%, an activity at 2.5 µM ([2]; dose 2500 nM, 6 days, normalized to vehicle control, read-out: MPPs normalized cell count) of 5.77% and an Emax ([2]; parameter from QSP model fitting, read-out: Emax_drug_MPP) of 0.0264%. The activity at 0.0002 µM ([3]; dose 0.2 nM, 6 days, normalized to vehicle control, read-out: GranPs normalized cell count) was 98.2%, the activity at 0.001 µM ([3]; dose 1 nM, 6 days, normalized to vehicle control, read-out: GranPs normalized cell count) was 107% and the activity at 0.005 µM ([3]; dose 5 nM, 6 days, normalized to vehicle control, read-out: GranPs normalized cell count) was 91.8%. For the same compound, the activity at 0.025 µM ([3]; dose 25 nM, 6 days, normalized to vehicle control, read-out: GranPs normalized cell count) was 73.4%, the activity at 0.1 µM ([3]; dose 100 nM, 6 days, normalized to vehicle control, read-out: GranPs normalized cell count) was 37% and the activity at 0.5 µM ([3]; dose 500 nM, 6 days, normalized to vehicle control, read-out: GranPs normalized cell count) was 8.03%. The activity at 2.5 µM ([3]; dose 2500 nM, 6 days, normalized to vehicle control, read-out: GranPs normalized cell count) was 0.794%, the Emax ([3]; parameter from QSP model fitting, read-out: Emax_drug_GranP) was 4.7% and the EC50 ([4]; QSP model fit of 6-day MLTA data, read-out: EC50ErythII) was 99.5 nM. It also gave an activity at 0.0002 µM ([4]; dose 0.2 nM, 6 days, normalized to vehicle control, read-out: ErythII normalized cell count) of 89%, an activity at 0.001 µM ([4]; dose 1 nM, 6 days, normalized to vehicle control, read-out: ErythII normalized cell count) of 103% and an activity at 0.005 µM ([4]; dose 5 nM, 6 days, normalized to vehicle control, read-out: ErythII normalized cell count) of 99.1%. For the same compound, the activity at 0.025 µM ([4]; dose 25 nM, 6 days, normalized to vehicle control, read-out: ErythII normalized cell count) was 82.3%, the activity at 0.1 µM ([4]; dose 100 nM, 6 days, normalized to vehicle control, read-out: ErythII normalized cell count) was 56.9% and the activity at 0.5 µM ([4]; dose 500 nM, 6 days, normalized to vehicle control, read-out: ErythII normalized cell count) was 30.3%. The activity at 2.5 µM ([4]; dose 2500 nM, 6 days, normalized to vehicle control, read-out: ErythII normalized cell count) was 14.3%, the Emax ([4]; parameter from QSP model fitting, read-out: Emax_drug_ErythroidII) was 11.8% and the EC50 ([5]; QSP model fit of 6-day MLTA data) was 75 nM. For the same compound, the activity at 0.0002 µM ([5]; dose 0.2 nM, 6 days, normalized to vehicle control, read-out: Neut normalized cell count) was 95.1%, the activity at 0.001 µM ([5]; dose 1 nM, 6 days, normalized to vehicle control, read-out: Neut normalized cell count) was 93.8% and the activity at 0.005 µM ([5]; dose 5 nM, 6 days, normalized to vehicle control, read-out: Neut normalized cell count) was 74.6%. It also gave an activity at 0.025 µM ([5]; dose 25 nM, 6 days, normalized to vehicle control, read-out: Neut normalized cell count) of 51.7%, an activity at 0.1 µM ([5]; dose 100 nM, 6 days, normalized to vehicle control, read-out: Neut normalized cell count) of 21.1% and an activity at 0.5 µM ([5]; dose 500 nM, 6 days, normalized to vehicle control, read-out: Neut normalized cell count) of 3.9%. It also gave an activity at 2.5 µM ([5]; dose 2500 nM, 6 days, normalized to vehicle control, read-out: Neut normalized cell count) of 0.666%, an Emax ([5]; parameter from QSP model fitting, read-out: Emax_drug_Neut) of 18.4% and an activity at 0.0002 µM ([6]; dose 0.2 nM, 6 days, normalized to vehicle control, read-out: ErythI normalized cell count) of 104%. The activity at 0.001 µM ([6]; dose 1 nM, 6 days, normalized to vehicle control, read-out: ErythI normalized cell count) was 109%, the activity at 0.005 µM ([6]; dose 5 nM, 6 days, normalized to vehicle control, read-out: ErythI normalized cell count) was 96.4% and the activity at 0.025 µM ([6]; dose 25 nM, 6 days, normalized to vehicle control, read-out: ErythI normalized cell count) was 72.1%. The activity at 0.1 µM ([6]; dose 100 nM, 6 days, normalized to vehicle control, read-out: ErythI normalized cell count) was 35.1%, the activity at 0.5 µM ([6]; dose 500 nM, 6 days, normalized to vehicle control, read-out: ErythI normalized cell count) was 9.41% and the activity at 2.5 µM ([6]; dose 2500 nM, 6 days, normalized to vehicle control, read-out: ErythI normalized cell count) was 2.34%. For the same compound, the Emax ([6]; parameter from QSP model fitting, read-out: Emax_drug_ErythroidI) was 0.04%, the EC50 ([7]; Homo sapiens, Hematopoietic stem cell, 144 h, QSP model fit of 6-day MLTA data) was 166 nM and the activity at 0.0002 µM ([7]; Homo sapiens, Hematopoietic stem cell, 144 h, dose 0.2 nM, 6 days, normalized to vehicle control, read-out: HSCs normalized cell count) was 89.4%. For the same compound, the activity at 0.001 µM ([7]; Homo sapiens, Hematopoietic stem cell, 144 h, dose 1 nM, 6 days, normalized to vehicle control, read-out: HSCs normalized cell count) was 92%, the activity at 0.005 µM ([7]; Homo sapiens, Hematopoietic stem cell, 144 h, dose 5 nM, 6 days, normalized to vehicle control, read-out: HSCs normalized cell count) was 98.5% and the activity at 0.025 µM ([7]; Homo sapiens, Hematopoietic stem cell, 144 h, dose 25 nM, 6 days, normalized to vehicle control, read-out: HSCs normalized cell count) was 83.4%. It also gave an activity at 0.1 µM ([7]; Homo sapiens, Hematopoietic stem cell, 144 h, dose 100 nM, 6 days, normalized to vehicle control, read-out: HSCs normalized cell count) of 48.9%, an activity at 0.5 µM ([7]; Homo sapiens, Hematopoietic stem cell, 144 h, dose 500 nM, 6 days, normalized to vehicle control, read-out: HSCs normalized cell count) of 25% and an activity at 2.5 µM ([7]; Homo sapiens, Hematopoietic stem cell, 144 h, dose 2500 nM, 6 days, normalized to vehicle control, read-out: HSCs normalized cell count) of 9.86%. For the same compound, the Emax ([7]; Homo sapiens, Hematopoietic stem cell, 144 h, parameter from QSP model fitting, read-out: Emax_drug_HSC) was 77.6% and the “EmaxAP,HSC” value ([7]; anti-proliferation component, min(1, EmaxT)) was 0.776.
